Reference: US9499508B2, “2-pyrones” (MERCK PATENT GMBH, priority 2010, dated 2016)

Assays:
[1] = system: calmodulin-like protein (CALML5); assay: cDNA array, gene expression of CALML5; type: cell-based; conditions: primary epidermal keratinocytes, 24 hours
Method: (§1) The assay is carried out using primary epidermal keratinocytes. […] All-trans retinoic acid is used as positive control. The cells are then cultured at 37° C. and under 5% CO2 for 24 hours.
(§2) The mRNA is isolated using the RNEASY Minikit test kit from Qiagen in accordance with the instruction manual. 1 μg of the RNA is then in each case converted into cDNA with the aid of the Firsts Strand cDNA synthesis kit from Roche. The 20 μl of cDNA obtained are diluted 1/10, and 110 μl of TaqMan™ Universal PCR Master Mix are in each case added to 110 μl of the cDNA samples. 100 μl are pipetted per slot into the Custom TaqMan™ array cards. The cards are sealed, centrifuged and then measured using the TaqMan™ 7900HT. The values obtained are standardised. Values less than or equal to −1.5 indicate moderate to strong downregulation of the expression of the genes investigated.

filaggrin (FLG) = assay: cDNA array, gene expression of FLG; type: cell-based; conditions: primary epidermal keratinocytes, 24 hours
Method: (§3) The assay is carried out using primary epidermal keratinocytes. After incubation at 37° C. and in a 5% CO2 atmosphere for 48 hours, the culture medium (DPBS and HyQtase cell detachment solution) is removed, and the test substances 4-hydroxy-6-methyl-2-pyrone Ia (40 μM) and 3-((E)-3,7-dimethylocta-2,6-dienyl)-4-hydroxy-6-methyl-2-pyrone Ii ([…]) in assay medium (keratinocytes basal medium M2 and supplement mix) are added. All-trans retinoic acid is used as positive control. The cells are then cultured at 37° C. and under 5% CO2 for 24 hours.
as §2

involucrin (IVL) = assay: cDNA array, gene expression of IVL; type: cell-based; conditions: primary epidermal keratinocytes, 24 hours
Method: as §1, §2

loricrin (LOR) = assay: cDNA array, gene expression of LOR; type: cell-based; conditions: primary epidermal keratinocytes, 24 hours
Method: as §1, §2

repetin (RPTN) = assay: cDNA array, gene expression of RPTN; type: cell-based; conditions: primary epidermal keratinocytes, 24 hours
Method: as §1, §2

calgranulin A (S100A8) = assay: cDNA array, gene expression of S100A8; type: cell-based; conditions: primary epidermal keratinocytes, 24 hours
Method: as §3, §2

calgranulin B (S100A9) = assay: cDNA array, gene expression of S100A9; type: cell-based; conditions: primary epidermal keratinocytes, 24 hours
Method: as §3, §2

[2] = system: transglutaminase 1 (TGM1); assay: cDNA array, gene expression of TGM1; type: cell-based; conditions: primary epidermal keratinocytes, 24 hours
Method: as §3, §2

Corneodesmosin (CDSN) = assay: cDNA array, gene expression of CDSN; type: cell-based; conditions: primary epidermal keratinocytes, 24 hours
Method: as §3, §2
(§4) A second group of genes (Table 2) considered encodes for proteins which correlate with cell-cell connections. Corneodesmosin (CDSN), desmoglein 1 (DSG1), desmoplakin (DSP) and desmocollin 3 (DSC3) are tested, the associated regulation factors are shown in Table 2. […] The downregulation of this protein family is known for retinoids.

desmocollin 3 (DSC3) = assay: cDNA array, gene expression of DSC3; type: cell-based; conditions: primary epidermal keratinocytes, 24 hours
Method: as §3, §2, §4

desmoglein 1 (DSG1) = assay: cDNA array, gene expression of DSG1; type: cell-based; conditions: primary epidermal keratinocytes, 24 hours
Method: as §3, §2, §4

desmoplakin (DSP) = assay: cDNA array, gene expression of DSP; type: cell-based; conditions: primary epidermal keratinocytes, 24 hours
Method: as §3, §2, §4

normal human adipocytes = assay: Lipolysis, unesterified fatty acids liberated from adipocytes; type: cell-based; conditions: 2 hours; for lipolytic activity, dependence on concentration: 0.25 mM, 0.5 mM, 1 mM and 2 mM
Method: The study is carried out using normal human adipocytes originating from the lower abdomen biopsy of a person. The hypodermis is isolated from the biopsy and incubated at 37° C. for 30 minutes with collagenase solution. The separated adipocytes are washed and diluted with assay medium (MEM without Phenol Red, penicillin 25 UI/ml/streptomycin […], L-glutamine 2 mM, bovine serum albumin (BSA), fatty acid-free: 0.5% (p/v)).
The test solutions or the caffeine reference are added to the cell suspensions, and the mixtures are incubated at 37° C. and in a 5% CO2 atmosphere for 2 hours.
After this time, the unesterified fatty acids liberated from the samples are quantified. The measurement is carried out using a Wako NEFA-C test kit in accordance with the instruction manual.

[3] = system: skin explants from the lower abdomen tissue; assay: Ex-vivo study on skin explants, histology; parameters: species or system human
Method: Histological explants having an average diameter of 10 mm from the lower abdomen tissue of a person are prepared. The pieces of tissue are stored in BEM medium in a moist, 5% CO2 atmosphere at 37° C. The tissue is divided into 3 batches of 6 explants each.
Batch K represents the negative control. Only the vehicle is applied to batch V. Batch P is treated with 4-hydroxy-6-methyl-2-pyrone Ia (1% in Mygliol/ethanol 80/20). 30 μl of the 1% substance solutions in Myliol/ethanol (80/20) are applied using a round filter paper and allowed to act for 2 hours. Applications are carried out on day 0, 1, 4, 6 and 7.
On the 8th day, 3 pieces of tissue from each batch are fixed in Bouin solution. After fixing for 48 hours, the samples are dehydrated by means of Leica TP 1020 and soaked in paraffin. Tissue sections with a thickness of 5 μm are produced from the paraffin blocks using a microtome and mounted on Superfrost specimen slides. The microscopic investigation is carried out using a Leica Orthoplan microscope after the tissue sections mounted on specimen slides have been stained with Masson-Goldner trichrome stain. In order to be able to assess the effect of the substances, the thickness of the epidermis or the change thereof is measured.

With `CC(C)=CCC/C(C)=C/Cc1c(O)cc(C)oc1=O` [Ii, 3-((E)-3,7-Dimethylocta-2,6-dienyl)-4-hydroxy-6-methyl-2-pyrone] the “CALML5 gene expression, standardised value” (shortened to “CALML5 gene expression”) ([1]; 50 μM) was −2.58, the “FLG gene expression, standardised value” (filaggrin (FLG); 50 μM) was −4.67 and the “IVL gene expression, standardised value” (involucrin (IVL); 50 μM) was −3.82. The “LOR gene expression, standardised value” (loricrin (LOR); 50 μM) was −1.59, the “RPTN gene expression, standardised value” (repetin (RPTN); 50 μM) was 1.57 and the “S100A8 gene expression, standardised value” (“S100A8 gene expression” below) (calgranulin A (S100A8); 50 μM) was −2.93. The “S100A9 gene expression, standardised value” (from here on “S100A9 gene expression”) (calgranulin B (S100A9); 50 μM) was −1.48, the “TGM1 gene expression, standardised value” ([2]; 50 μM) was −1.56 and the “CDSN gene expression, regulation factor” value (Corneodesmosin (CDSN); 50 μM) was −13.20. For the same molecule, the “DSC3 gene expression, regulation factor” value (desmocollin 3 (DSC3); 50 μM) was −1.14, the “DSG1 gene expression, regulation factor” value (desmoglein 1 (DSG1); 50 μM) was −8.20 and the “DSP gene expression, regulation factor” value (desmoplakin (DSP); 50 μM) was −1.53. The “stimulation of lipolysis (triacylglycerin degradation)” value (shortened to “stimulation of lipolysis”) (normal human adipocytes; 1 mM) was −60% and the “stimulation of lipolysis” value (normal human adipocytes; 2 mM) was −67%.

In the case of `CC1=C(/C=C/C(C)=C/C=C/C(C)=C/C(=O)O)C(C)(C)CCC1` [all-trans retinoic acid, All-trans retinoic acid, reference compound], the “CALML5 gene expression” value ([1]; 5 μM) is reported as −2.93, the “FLG gene expression, standardised value” (filaggrin (FLG); 5 μM) is reported as −3.20 and the “IVL gene expression, standardised value” (involucrin (IVL); 5 μM) is reported as −4.05. The “LOR gene expression, standardised value” (loricrin (LOR); 5 μM) was −7.01, the “RPTN gene expression, standardised value” (repetin (RPTN); 5 μM) was −2.56 and the “S100A8 gene expression” value (calgranulin A (S100A8); 5 μM) was −3.26. The “S100A9 gene expression” value (calgranulin B (S100A9); 5 μM) was −3.49, the “TGM1 gene expression, standardised value” ([2]; 5 μM) was −3.56 and the “CDSN gene expression, regulation factor” value (Corneodesmosin (CDSN); concentration not given) was −2.37. For the same molecule, the “DSC3 gene expression, regulation factor” value (desmocollin 3 (DSC3); concentration not given) was −1.23, the “DSG1 gene expression, regulation factor” value (desmoglein 1 (DSG1); concentration not given) was −9.22 and the “DSP gene expression, regulation factor” value (desmoplakin (DSP); concentration not given) was −1.56.

`Cc1cc(O)cc(=O)o1` [Ia, 4-hydroxy-6-methyl-2-pyrone] was tested, and the “CALML5 gene expression” value ([1]; 40 μM) was −3.14, the “FLG gene expression, standardised value” (filaggrin (FLG); 40 μM) was 1.01 and the “IVL gene expression, standardised value” (involucrin (IVL); 40 μM) was −1.76. The “LOR gene expression, standardised value” (loricrin (LOR); 40 μM) was −4.56, the “RPTN gene expression, standardised value” (repetin (RPTN); 40 μM) was −3.33 and the “S100A8 gene expression” value (calgranulin A (S100A8); 40 μM) was −1.74. For the same molecule, the “S100A9 gene expression” value (calgranulin B (S100A9); 40 μM) was −2.18, the “TGM1 gene expression, standardised value” ([2]; 40 μM) was −1.26 and the “CDSN gene expression, regulation factor” value (Corneodesmosin (CDSN); 40 μM) was −2.14. For the same molecule, the “DSC3 gene expression, regulation factor” value (desmocollin 3 (DSC3); 40 μM) was −1.69, the “DSG1 gene expression, regulation factor” value (desmoglein 1 (DSG1); 40 μM) was −1.39 and the “DSP gene expression, regulation factor” value (desmoplakin (DSP); 40 μM) was −1.40. For the same molecule, the “collagen network in the dermis along the dermo-epidermal junction zone” value ([3]; 1% in Mygliol/ethanol 80/20, topical on day 0, 1, 4, 6 and 7, day 8) was “becomes denser” and the “thicker epidermis compared with the vehicle” value ([3]; 1% in Mygliol/ethanol 80/20, topical on day 0, 1, 4, 6 and 7, measured on the 8th day) was 10%.

For `COc1cc(C)oc(=O)c1` [Ib, 4-Methoxy-6-methyl-2-pyrone], the “lipolytic activity, dependence on concentration” value (normal human adipocytes) was “increase the lipolytic activity as a function of concentration” and the “stimulation of lipolysis” value (normal human adipocytes; 2 mM) was 82%.

For `CCCCC(CC)Oc1cc(C)oc(=O)c1` (centres unmarked) [Ij, 4-(1-Ethylpentyloxy)-6-methyl-2-pyrone], the “lipolytic activity, dependence on concentration” value (normal human adipocytes) was “increase the lipolytic activity as a function of concentration” and the “stimulation of lipolysis” value (normal human adipocytes; 2 mM) was 57%.
